Measured values reported in ChEMBL document CHEMBL3137667, “[Drug-induced liver injury; fourteenth updated edition of the bibliographic database of liver injuries and related drugs]” (Gastroenterol Clin Biol, 2004).

Assays:
[1] = human
[2] = human, serum
[3] = human, serum, 4383 h
[4] = human; remark: listed apart in the source
[5] = human; remark: listed apart in the source
[6] = Highest frequency of acute liver toxicity observed during clinical trials, expressed as a percentage. [column '% AIGUE' in source]; conditions: human
[7] = human; remark: listed apart in the source
[8] = human; remark: listed apart in the source
[9] = Proposed mechanism(s) of liver damage. [column 'MEC' in source]; conditions: human
[10] = Highest frequency of moderate liver toxicity observed during clinical trials, expressed as a percentage. [column '% BIOL' in source]; conditions: human
[11] = human; remark: listed apart in the source
[12] = human, serum; remark: listed apart in the source
[13] = human; remark: listed apart in the source
[14] = human; remark: listed apart in the source
[15] = human; remark: listed apart in the source
[16] = Times to onset, minimal and maximal, observed in the indexed observations. [column 'DELAI' in source]; conditions: human
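Wherever Hepatotoxicity (association with vascular disease) is given: count of indexed literature references reporting vascular liver injury in humans, e.g. peliosis hepatitis, hepatic veno-occlusive disease or Budd-Chiari syndrome.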
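Wherever Hepatotoxicity (benign tumour) is given: value is a count of indexed literature references citing a benign tumour confirmed by histopathology.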
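Wherever Hepatotoxicity (choleostasis) is given: human cholestatic liver injury, shown by histopathology or by peak ALT or AST elevation over alkaline phosphatase ratio below 2, value counts indexed literature reports.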
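Wherever Hepatotoxicity (chronic liver disease) is given: chronic liver injury confirmed by histopathology or persistently raised serum aminotransferase activity beyond 6 months, value given as the count of indexed literature references.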
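Wherever Hepatotoxicity (cirrhosis) is given: value is a count of indexed literature references reporting cirrhosis confirmed by histopathology.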
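Wherever Hepatotoxicity (cytolytic) is given: human cytolytic liver injury, shown by histopathology or by a ratio above 5 of peak ALT or AST elevation to alkaline phosphatase elevation, value counts indexed references.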
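Wherever Hepatotoxicity (granulomatous hepatitis) is given: value is a count of indexed literature references reporting granulomatous liver disease confirmed by histopathology.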
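Wherever Hepatotoxicity (malignant tumour) is given: malignant tumour confirmed by histopathology, value gives the count of indexed literature references reporting it.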
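Wherever Hepatotoxicity (severe hepatitis) is given: human clinical data: severe hepatitis, meaning potentially life-threatening liver failure or clinically observed cases, the value counts how many indexed literature references report it.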
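Wherever Hepatotoxicity (steatosis) is given: steatosis confirmed by histopathology, value is the count of indexed references.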

Row | Compound | Hepatotoxicity (cytolytic) [1] | Hepatotoxicity (moderate) [2] | Hepatotoxicity (chronic liver disease) [3] | Hepatotoxicity (choleostasis) [4] | Hepatotoxicity (association with vascular disease) [5] | Hepatotoxicity (acute) [6] [%] | Hepatotoxicity (benign tumour) [7] | Hepatotoxicity (severe hepatitis) [8] | Hepatotoxicity (mechanism) [9] | Hepatotoxicity (moderate) [10] [%] | Hepatotoxicity (steatosis) [11] | Hepatotoxicity (acute) [12] | Hepatotoxicity (malignant tumour) [13] | Hepatotoxicity (cirrhosis) [14] | Hepatotoxicity (granulomatous hepatitis) [15] | Hepatotoxicity (time to onset) [16] | Hepatotoxicity (acute) ([6]; Liver) [%] | Hepatotoxicity (severe hepatitis) ([8]; Liver) | Hepatotoxicity (moderate) ([10]; Liver) [%]
1 | C=CCC1(C(C)C#CCC)C(=O)N=C(O)N(C)C1=O (stereo not given) [METHOHEXITAL] | 0 | 1 | 0 | 0 | 0 | 0 | 0 | 0 | Dose-dependant | 0 | 0 | 0 | 0 | 0 | 0 |  |  |  | 
2 | CC(C)(O/N=C(\C(=O)N[C@@H]1C(=O)N2C(C(=O)[O-])=C(C[n+]3ccccc3)CS[C@H]12)c1csc(N)n1)C(=O)O [CEFTAZIDIME] | 0 | 77 | 0 | 2 | 0 | 2.5 | 0 | 0 | Dose-dependant | 35.7 | 0 | 2 | 0 | 0 | 0 |  |  |  | 
3 | COc1nc(C)ccc1CN1CC1C#N (stereo not given) [CIAMEXON] | 0 | 2 | 0 | 0 | 0 | 0 | 0 | 0 | Dose-dependant | 14 | 0 | 0 | 0 | 0 | 0 |  |  |  | 
4 | INTERFERON ALFA-N1 | 0 | 15 | 0 | 0 | 0 | 0 | 0 | 0 | Dose-dependant | 42 | 0 | 0 | 0 | 0 | 0 |  |  |  | 
5 | CCOC(=O)c1c(N)sc2c1CCN(Cc1ccccc1)C2 [TINORIDINE] | 0 | 1 | 0 | 0 | 0 | 0 | 0 | 0 | Allergic | 0 | 0 | 1 | 0 | 0 | 0 |  |  |  | 
6 | C[C@@](O)(/C=C/[C@H]1CC=CC(=O)O1)[C@@H](C[C@@H](O)\C=C/C=C\C=C\CO)OP(=O)(O)O [FOSTRIECIN] | 0 | 1 | 0 | 0 | 0 | 0 | 0 | 0 | Dose-dependant | 5 | 0 | 0 | 0 | 0 | 0 |  |  |  | 
7 | C=CCC(C(=O)NC(N)=O)C(C)C (stereo not given) [APRONAL] | 0 | 0 | 0 | 0 | 0 | 0 | 0 | 0 |  | 0 | 0 | 2 | 0 | 0 | 2 | 2 days - 2 years |  |  | 
8 | CCCCC(=O)N(Cc1ccc(-c2ccccc2-c2nnn[nH]2)cc1)[C@H](C(=O)O)C(C)C | 1 | 2 | 0 | 1 | 0 | 0 | 0 | 1 |  | 0 | 0 | 3 | 0 | 0 | 0 | 1 month - 4.5 months |  |  | 
9 | CCC(=O)O[C@@H]1CC(=O)O[C@H](C)C/C=C/C=C/[C@H](O)[C@H](C)C[C@H](CC=O)[C@H](O[C@@H]2O[C@H](C)[C@@H](O[C@H]3C[C@@](C)(O)[C@@H](OC(=O)CC)[C@H](C)O3)[C@H](N(C)C)[C@H]2O)[C@H]1OC [MIDECAMYCIN] | 1 | 3 | 0 | 0 | 0 | 0 | 0 | 1 |  | 2.3 | 0 | 1 | 0 | 0 | 0 | 1 days |  |  | 
10 | CCOC(=O)Nc1ccc2c(c1)N(C(=O)CCN1CCOCC1)c1ccccc1S2 [MORICIZINE] | 0 | 4 | 0 | 0 | 0 | 0 | 0 | 0 |  | 1.2 | 0 | 0 | 0 | 0 | 0 | 6 days |  |  | 
11 | Cc1ccc(C(=O)c2ccc(CC(=O)O)n2C)cc1 [TOLMETIN] | 0 | 3 | 0 | 1 | 0 |  | 0 |  |  |  | 0 | 1 | 0 | 0 | 0 | 3 weeks | 0 | 0 | 14.6
12 | CC(C)[N+](C)(CCC(C(N)=O)(c1ccccc1)c1ccccc1)C(C)C [ISOPROPAMIDE] | 1 | 0 | 0 | 0 | 0 | 0 | 0 | 0 |  | 0 | 0 | 1 | 0 | 0 | 0 | 3 months |  |  | 
13 | N#C[C@H](O[C@@H]1O[C@H](CO[C@@H]2O[C@H](CO)[C@@H](O)[C@H](O)[C@H]2O)[C@@H](O)[C@H](O)[C@H]1O)c1ccccc1 [AMYGDALIN] | 0 | 0 | 0 | 0 | 0 | 0 | 0 | 1 |  | 0 | 0 | 0 | 0 | 0 | 0 | 2 days |  |  | 
14 | CN(C)CCOc1ccc(/C(=C(/CCCl)c2ccccc2)c2ccccc2)cc1 [TOREMIFENE] | 0 | 4 | 0 | 1 | 0 | 6.1 | 0 | 0 |  | 8.3 | 1 | 2 | 0 | 0 | 0 | 3 months |  |  | 
